For the assay, the system named is MCF7 multi-cell spheroids with HUVEC/MSC, viability. Briefly: Anticancer human tumor MCF7 cell line growth inhibition [IpAb].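 On all read-outs here: spheroids exposed to agents for seven days before readout.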 Conditions: for viability, T/C: stronger effect = lower value. A digest of the protocol:
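Spheroids of 60% malignant cells, 25% HUVEC and 15% MSC were exposed to targeted agents combined with ipatasertib or abemaciclib. Doses started at or near clinical Cmax (10 microM when unknown) and fell in half-log steps.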

Setting [1] is: curve of first compound, second compound 0.01 µM.
[2] abbreviates: curve of first compound, second compound 0.0316 µM.
Setting [3] is: curve of first compound, second compound 0.1 µM.
[4] abbreviates: curve of first compound, second compound 0.316 µM.
Where [5] appears, read: curve of first compound, second compound 1 µM.
Where [6] appears, read: second compound 0.1 µM, first compound 0.00949 µM.
[7] abbreviates: second compound 0.1 µM, first compound 0.03 µM.
Where [8] appears, read: second compound 0.1 µM, first compound 0.0949 µM.
Setting [9] is: second compound 0.1 µM, first compound 0.3 µM.
The mark [10] stands for this setting: second compound 0.316 µM, first compound 0.00949 µM.
Setting [11] is: second compound 0.316 µM, first compound 0.03 µM.
Setting [12] is: second compound 0.316 µM, first compound 0.0949 µM.
Where [13] appears, read: second compound 0.316 µM, first compound 0.3 µM.
Setting [14] is: second compound 1 µM, first compound 0.00949 µM.
The mark [15] stands for this setting: second compound 1 µM, first compound 0.03 µM.
[16] abbreviates: second compound 1 µM, first compound 0.0949 µM.
Where [17] appears, read: second compound 1 µM, first compound 0.3 µM.

Each structure is given as a SMILES string. pIC50: −log10 of the molar value. “And” between values parts separate entries of the source, which are not always exact repeats. Equal values may be shown once.

By pIC50 is commonly meant the IC50 on a negative log10 scale, so that one unit is a factor of ten. By viability, T/C is commonly meant the ratio of treated to control. As to `CC(=O)c1c(C)c2cnc(Nc3ccc(N4CCNCC4)cn3)nc2n(C2CCCC2)c1=O` + CCN1CCN(Cc2ccc(Nc3ncc(F)c(-c4cc(F)c5nc(C)n(C(C)C)c5c4)n3)nc2)CC1, the pIC50 was below 6.52 under setting [1]; below 6.52 under setting [2]; below 6.52 under setting [3]; below 6.52 under setting [4]; below 6.52 under setting [5]. For the same molecule, the viability, T/C was 93.2% (second compound 0.01 µM, first compound 0.000949 µM); 99.5% (second compound 0.01 µM, first compound 0.003 µM); 103% (second compound 0.01 µM, first compound 0.00949 µM); 104% (second compound 0.01 µM, first compound 0.03 µM); 97.4% (second compound 0.01 µM, first compound 0.0949 µM); 93.6% (second compound 0.01 µM, first compound 0.3 µM). The viability, T/C is 101% (second compound 0.0316 µM, first compound 0.000949 µM); 95.4% (second compound 0.0316 µM, first compound 0.003 µM); 90.6% (second compound 0.0316 µM, first compound 0.00949 µM); 93.3% (second compound 0.0316 µM, first compound 0.03 µM); 93% (second compound 0.0316 µM, first compound 0.0949 µM); 94.1% (second compound 0.0316 µM, first compound 0.3 µM). Besides, the viability, T/C is 93.9% (second compound 0.1 µM, first compound 0.000949 µM); 104% (second compound 0.1 µM, first compound 0.003 µM); 88.3% under setting [6]; 99.3% under setting [7]; 92.8% under setting [8]; 86.7% under setting [9]. For the same molecule, the viability, T/C was 95% (second compound 0.316 µM, first compound 0.000949 µM); 90.9% (second compound 0.316 µM, first compound 0.003 µM); 96.6% under setting [10]; 92.1% under setting [11]; 97% under setting [12]; 85.5% under setting [13]. The viability, T/C by setting is: (second compound 1 µM, first compound 0.000949 µM) 82.7%; (second compound 1 µM, first compound 0.003 µM) 94.5%; under setting [14], 79.8%; under setting [15], 79.8%; under setting [16], 87.1%; under setting [17], 92.2%.
As for `CC(C)(C)c1cnc(CSc2cnc(NC(=O)C3CCNCC3)s2)o1` + CC(C)NCC(C(=O)N1CCN(c2ncnc3c2C(C)CC3O)CC1)c1ccc(Cl)cc1, the negative-log IC50 (pIC50) under setting [3] is 7.05; the pIC50 under setting [4] is 7.06; the negative-log IC50 (pIC50) under setting [5] was 7.09; the pIC50 (curve of first compound, second compound 3.16 µM) was 7.39; the negative-log IC50 (pIC50) (curve of first compound, second compound 10 µM) was 8.02. Besides, the viability, T/C under setting [6] is 87.9%; the viability, T/C under setting [7] is 98%; the viability, T/C under setting [8] is 47.7%; the viability, T/C under setting [9] is 22.2%; the viability, T/C (second compound 0.1 µM, first compound 0.949 µM) was 29.6%; the viability, T/C (second compound 0.1 µM, first compound 3 µM) was 32.6%. Also, the viability, T/C by setting is: under setting [10], 83.9%; under setting [11], 87%; under setting [12], 47.3%; under setting [13], 22.4%; (second compound 0.316 µM, first compound 0.949 µM) 29%; (second compound 0.316 µM, first compound 3 µM) 29.9%. Besides, the viability, T/C was 76.5% under setting [14]; 75.6% under setting [15]; 45.9% under setting [16]; 21.6% under setting [17]; 25.3% (second compound 1 µM, first compound 0.949 µM); 28.9% (second compound 1 µM, first compound 3 µM). Further, the viability, T/C by setting is: (second compound 3.16 µM, first compound 0.00949 µM) 54.8%; (second compound 3.16 µM, first compound 0.03 µM) 61.6%; (second compound 3.16 µM, first compound 0.0949 µM) 26.4%; (second compound 3.16 µM, first compound 0.3 µM) 20.2%; (second compound 3.16 µM, first compound 0.949 µM) 22.2%; (second compound 3.16 µM, first compound 3 µM) 24.9%. For the same molecule, the viability, T/C is 47.1% (second compound 10 µM, first compound 0.00949 µM); 49.8% (second compound 10 µM, first compound 0.03 µM); 14.4% (second compound 10 µM, first compound 0.0949 µM); 17.9% (second compound 10 µM, first compound 0.3 µM); 21.1% (second compound 10 µM, first compound 0.949 µM); 22.1% (second compound 10 µM, first compound 3 µM).
Turning to `CC(=O)c1c(C)c2cnc(Nc3ccc(N4CCNCC4)cn3)nc2n(C2CCCC2)c1=O`, the viability, T/C reads like this: (compound 0.000949 µM) 119% and 97.4%; (compound 0.003 µM) 101% and 97.1%; (compound 0.00949 µM) 95.5% and 95.7%; (compound 0.03 µM) 96.1% and 115%; (compound 0.0949 µM) 109% and 95.9%; (compound 0.3 µM) 89.2% and 104%. Moreover, the pIC50 (curve of compound) was below 6.52.
For `C=CCn1c(=O)c2cnc(Nc3ccc(N4CCN(C)CC4)cc3)nc2n1-c1cccc(C(C)(C)O)n1`, the viability, T/C (compound 0.0316 µM) was 104% and 99.2%; the viability, T/C (compound 0.1 µM) was 98.9% and 108%; the viability, T/C (compound 0.316 µM) is 58.2% and 76.1%; the viability, T/C (compound 1 µM) is 34% and 44.2%; the viability, T/C (compound 3.16 µM) was 28.5% and 29.7%; the viability, T/C (compound 10 µM) was 28.2% and 33.6%. For the same molecule, the pIC50 (curve of compound) was 6.33 and 6.12.
Take `CC1(C)CCC(CN2CCN(c3ccc(C(=O)NS(=O)(=O)c4ccc(NCC5CCOCC5)c([N+](=O)[O-])c4)c(Oc4cnc5[nH]ccc5c4)c3)CC2)=C(c2ccc(Cl)cc2)C1` + CCN1CCN(Cc2ccc(Nc3ncc(F)c(-c4cc(F)c5nc(C)n(C(C)C)c5c4)n3)nc2)CC1: the pIC50 reads like this: under setting [1], 5.15; under setting [2], 5.15; under setting [3], 5.18; under setting [4], 5.20; under setting [5], 5.27. Moreover, the viability, T/C is, setting by setting: (second compound 0.01 µM, first compound 0.0316 µM) 107%; (second compound 0.01 µM, first compound 0.1 µM) 93.2%; (second compound 0.01 µM, first compound 0.316 µM) 109%; (second compound 0.01 µM, first compound 1 µM) 96.8%; (second compound 0.01 µM, first compound 3.16 µM) 111%; (second compound 0.01 µM, first compound 10 µM) 26.4%. For the same molecule, the viability, T/C runs as follows: (second compound 0.0316 µM, first compound 0.0316 µM) 97.8%; (second compound 0.0316 µM, first compound 0.1 µM) 94.8%; (second compound 0.0316 µM, first compound 0.316 µM) 94.9%; (second compound 0.0316 µM, first compound 1 µM) 91.5%; (second compound 0.0316 µM, first compound 3.16 µM) 104%; (second compound 0.0316 µM, first compound 10 µM) 29.2%. In addition, the viability, T/C by setting is: (second compound 0.1 µM, first compound 0.0316 µM) 107%; (second compound 0.1 µM, first compound 0.1 µM) 118%; (second compound 0.1 µM, first compound 0.316 µM) 102%; (second compound 0.1 µM, first compound 1 µM) 106%; (second compound 0.1 µM, first compound 3.16 µM) 104%; (second compound 0.1 µM, first compound 10 µM) 20.1%. Besides, the viability, T/C is 99.5% (second compound 0.316 µM, first compound 0.0316 µM); 117% (second compound 0.316 µM, first compound 0.1 µM); 116% (second compound 0.316 µM, first compound 0.316 µM); 104% (second compound 0.316 µM, first compound 1 µM); 98.6% (second compound 0.316 µM, first compound 3.16 µM); 17% (second compound 0.316 µM, first compound 10 µM). Moreover, the viability, T/C was 105% (second compound 1 µM, first compound 0.0316 µM); 107% (second compound 1 µM, first compound 0.1 µM); 101% (second compound 1 µM, first compound 0.316 µM); 92.7% (second compound 1 µM, first compound 1 µM); 87.7% (second compound 1 µM, first compound 3.16 µM); 9.36% (second compound 1 µM, first compound 10 µM).

The values above are taken from PubChem BioAssay AID2060329 (Molecular Pharmacology Branch, DTP, NCI, 2025).
